In the supplement of paper PMC11061612:

Columns and labels:
[1] = tested on: SK-PN-DW (Other Solid Carcinomas); assay: combination Emax (second highest fraction inhibited in the dose matrix, 72 h); higher = more inhibition; extreme values may be limits of the assay
Method in brief: (§1)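 Cell lines in DMEM/F12 or RPMI with 10% FBS were plated in 1536-well plates, held 24 hours at 37°C, 5% CO2, then given two-drug dose matrices for 72 hours (DMSO typically 0.2%). Viability was read by CellTiter-Glo 2.0 luminescence and scaled as inhibition from 0 (vehicle wells) to 1 (blank wells). Combination Emax is the second-highest inhibition in the matrix; Bliss excess is observed combination effect minus expected EA + EB − EA·EB, EA and EB being single-agent effects.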

[2] = tested on: LXF-289 (Lung Adenocarcinoma); assay: as above
Method in brief: as §1

[3] = tested on: PANC-03-27 (Pancreatic Carcinoma); assay: as above
Method in brief: as §1

[4] = tested on: NCI-H446 (Small Cell Lung Carcinoma); assay: as above
Method in brief: as §1

LN-229 (Glioblastoma) = assay: as above
Method in brief: as §1

A2058 (Melanoma) = assay: as above
Method in brief: as §1

[5] = tested on: SU-DHL-10 (B-Cell Non-Hodgkin's Lymphoma); assay: as above
Method in brief: as §1

GB-1 (Glioblastoma) = assay: as above
Method in brief: as §1

[6] = tested on: TE-8 (Esophageal Squamous Cell Carcinoma); assay: as above
Method in brief: as §1

WM278 (Melanoma) = assay: as above
Method in brief: as §1

[7] = tested on: OAW-42 (Ovarian Carcinoma); assay: as above
Method in brief: as §1

[8] = tested on: OPM-2 (Plasma Cell Myeloma); assay: as above
Method in brief: as §1

[9] = tested on: RKN (Other Solid Carcinomas); assay: as above
Method in brief: as §1

[10] = tested on: SHP-77 (Small Cell Lung Carcinoma); assay: as above
Method in brief: as §1

[11] = tested on: LB996-RCC (Kidney Carcinoma); assay: as above
Method in brief: as §1

[12] = tested on: OVMIU (Ovarian Carcinoma); assay: as above
Method in brief: as §1

[13] = tested on: CAL-62 (Thyroid Gland Carcinoma); assay: as above
Method in brief: as §1

[14] = tested on: VAL (B-Cell Non-Hodgkin's Lymphoma); assay: Bliss excess, mean over the matrix (fraction); higher = more synergy
Method in brief: as §1

[15] = tested on: HEC-1 (Endometrial Carcinoma); assay: as above
Method in brief: as §1

[16] = tested on: OVMIU (Ovarian Carcinoma); assay: as above
Method in brief: as §1
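Wherever Bliss excess, mean over the matrix is given: after 72 h of two-drug dosing.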

Structure (SMILES) | combination Emax [1] | combination Emax [2] | combination Emax [3] | combination Emax [4] | combination Emax (LN-229 (Glioblastoma)) | combination Emax (A2058 (Melanoma)) | combination Emax [5] | combination Emax (GB-1 (Glioblastoma)) | combination Emax [6] | combination Emax (WM278 (Melanoma)) | combination Emax [7] | combination Emax [8] | combination Emax [9] | combination Emax [10] | combination Emax [11] | combination Emax [12] | combination Emax [13] | Bliss excess [14] | Bliss excess [15] | Bliss excess [16]
COc1nnc2ccc(N3CCC(c4ccc(OCCN5CCN(C)C(=O)[C@H]5C)cc4)CC3)nn12 [AZD5153] + C=CCn1c(=O)c2cnc(Nc3ccc(N4CCN(C)CC4)cc3)nc2n1-c1cccc(C(C)(C)O)n1 [AZD1775] (first compound max 1 µM, partner max 1 µM) | 0.762 | 0.813 | 0.604 | 0.962 | 0.431 | 0.8 | 1 | 0.641 | 0.654 | 0.581 | 0.615 | 1 | 0.527 | 0.66 | 0.835 | 0.86 | 0.79 | -0.126 | 0.0363 | -0.0409
CN(CCO)CC[C@H](CSc1ccccc1)Nc1ccc(S(=O)(=O)NC(=O)c2ccc(N3CCC([C@@H](O)c4ccccc4-c4ccc(Cl)cc4)CC3)cc2)cc1S(=O)(=O)C(F)(F)F [AZD4320] + C=CCn1c(=O)c2cnc(Nc3ccc(N4CCN(C)CC4)cc3)nc2n1-c1cccc(C(C)(C)O)n1 [AZD1775] (first compound max 1 µM, partner max 1 µM) | 0.898 | 0.638 | 0.985 | 0.963 | 0.428 | 0.355 | 0.992 | 0.223 | 0.932 | 0.765 | 0.496 | 0.955 | 0.315 | 0.65 | 0.978 | 0.976 | 0.878 | -0.0211 | 0.0194 | 0.0324
CN(CCO)CC[C@H](CSc1ccccc1)Nc1ccc(S(=O)(=O)NC(=O)c2ccc(N3CCC([C@@H](O)c4ccccc4-c4ccc(Cl)cc4)CC3)cc2)cc1S(=O)(=O)C(F)(F)F [AZD4320] + CN(C)CCCOc1ccc(-c2ccc3ncc4c(c3c2)n(C2CCOCC2)c(=O)n4C)cn1 [AZD0156] (first compound max 1 µM, 7x7, partner max 1 µM) | 0.326 | 0.182 | 0.33 | 0.663 | 0.142 | 0.103 | 0.144 | 0.0923 | 0.181 | 0.568 | 0.261 | 0.687 | 0.102 | 0.585 | 0.227 | 0.771 | 0.228 | 0.0174 | -0.0414 | -0.0427
